How the values were obtained:
β-secretase II (BACE2) = target: T1, β-secretase II (BACE2) (Homo sapiens, UniProt Q9Y5Z0); assay: Biochemical assay, automated (CyclOps), BACE2; settings: automated CyclOps bioassay
T1 sequence (Q9Y5Z0 63-518): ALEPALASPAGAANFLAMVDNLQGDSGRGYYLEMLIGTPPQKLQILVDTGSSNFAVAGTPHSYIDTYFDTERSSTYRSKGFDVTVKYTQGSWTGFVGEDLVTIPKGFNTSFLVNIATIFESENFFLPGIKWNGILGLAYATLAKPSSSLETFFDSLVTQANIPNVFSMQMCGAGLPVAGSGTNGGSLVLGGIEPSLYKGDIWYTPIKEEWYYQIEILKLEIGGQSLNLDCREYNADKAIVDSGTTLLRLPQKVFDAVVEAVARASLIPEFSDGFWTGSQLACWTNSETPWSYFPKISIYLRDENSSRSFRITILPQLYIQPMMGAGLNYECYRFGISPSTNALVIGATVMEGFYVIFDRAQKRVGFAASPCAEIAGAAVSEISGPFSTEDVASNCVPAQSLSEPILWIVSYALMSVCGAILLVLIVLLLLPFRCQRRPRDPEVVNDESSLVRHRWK
Method: (§1) Unless otherwise indicated all biochemicals were purchased from Sigma-Aldrich Chemical Company, Poole, Dorset, U.K. and non-aqueous solvents, of analytical or higher grade, were purchased from ThermoFisher Scientific, Loughborough, U.K. MilliQ water (Elix 5 & MilliQ Gradient; Merck Millipore) was used as the base aqueous solvent to make up the biological buffers. Base assay buffer was prepared by adding a 50 mM solution of citric acid (1.00244; Merck Biosciences) to stirring solution of 50 mM trisodium citrate (1.06448; Merck Biosciences) until a final pH of 5.0 was achieved. […] All assays were routinely carried out in 384-well assay plates (Costar 4514; Corning Life Sciences) and incubated at 37±1° C. for 60 min. prior to reading the endpoint fluorescence intensity. The (7-methoxyl coumarin-4-yl)acetic acid based substrate β-secretase substrate VI (M2465; Bachem) was prepared as a 1 mM stock in 100% DMSO (D/4121/PB08; ThermoFisher). Assay buffer was prepared by adding DMSO to base buffer to a final concentration of 1% (vol./vol.). β-secretase I (18.64 μM; “BACE1”) and β-secretase II (4.65 μM; “BACE2”) were obtained from Janssen Pharmaceutica, Beerse, Belgium and were stored as frozen aliquots (˜20 μl) and thawed as required.
(§2) Typically 12.5 μl of assay buffer was dispensed to rows B to P of the assay plate. To row A was added 18.75 μl of test compound diluted appropriately in assay buffer. A 6.25 μl aliquot of sample was transferred from row A to row B and the sample mixed three times by pipette. The process was repeated down the plate and 6.25 μl of solution discarded at row N post-mix. Rows O and P were designated as the positive and negative controls. To row P was added 6.25 μl base buffer. To rows A to O was added 6.25 μl enzyme (freshly prepared 40 nM BACE1 or 40 nM BACE2) diluted in base buffer. To initiate the assay 6.25 μl of freshly prepared 80 μM substrate, made up by diluting the 1 mM in 100% DMSO solution into HPLC grade water (Optima W6-212; ThermoFisher), was added to all the wells. The assay plate was covered and incubated at 37±1° C. for 60 min. The fluorescence intensity of the wells was read at 360/405 nm (excitation/emission) utilising a nine reads per well protocol (50 ms integration; density of 3, 0.25 mm spacing; SpectraMAX Paradigm plate reader; TUNE cartridge; SoftMax Pro v 6.3 software; Molecular Devices UK Ltd., Wokingham, Berkshire, UK) and outputting the median value of the nine reads as a text file. Data analysis was carried out using Prism software v 6.3 (GraphPad Inc., San Diego, Calif., USA) using the non-linear regression analysis models supplied by the vendor. For IC50 determinations the four parameter logistic variable slope model was used to fit the raw fluorescence intensity data with the ‘bottom’ fixed to the negative control.
(§3) The CyclOps bioassay module consisted of a fraction collection station, a reagent station, liquid handling robotics, plate store and an integrated plate reader (SpectraMAX Paradigm, TUNE cartridge, SoftMax Pro v 6.3; Molecular Devices). The fraction collection station composed of a 384 well collection plate (P-384-240SQ-C; Axygen, Union City, Calif., USA) mounted on a H-portal carriage (Festo AG & Co. KG, Esslingen, Germany), a syringe drive and a two-way six port injection valve fitted with a 200 μl loop (VICI AG International, Schenkon Switzerland). The output of the injection valve was addressable to all the positions of a 384 well collection plate. The reagent station consisted of hydraulically cooled (10-12° C.) aluminium segments; each manufactured to house a SBS microtiter plate footprint. Independent addressable reagent stations were housed within these sections. Where required, custom aluminium housings were used to accommodate standard laboratory plastic ware (e.g. Eppendorf tubes, Falcon tubes, etc.). As and when required the reagent reservoirs were covered and the lids contained holes through which the Teflon-coated probe could access solutions. […]

β-secretase I (BACE1) = β-secretase I (BACE1) (Homo sapiens, UniProt P56817); assay: Biochemical assay, automated (CyclOps), BACE1; settings: automated CyclOps bioassay
Method: as §1, §2, §3

Chain of β-secretase I (BACE1) (P56817 46-501): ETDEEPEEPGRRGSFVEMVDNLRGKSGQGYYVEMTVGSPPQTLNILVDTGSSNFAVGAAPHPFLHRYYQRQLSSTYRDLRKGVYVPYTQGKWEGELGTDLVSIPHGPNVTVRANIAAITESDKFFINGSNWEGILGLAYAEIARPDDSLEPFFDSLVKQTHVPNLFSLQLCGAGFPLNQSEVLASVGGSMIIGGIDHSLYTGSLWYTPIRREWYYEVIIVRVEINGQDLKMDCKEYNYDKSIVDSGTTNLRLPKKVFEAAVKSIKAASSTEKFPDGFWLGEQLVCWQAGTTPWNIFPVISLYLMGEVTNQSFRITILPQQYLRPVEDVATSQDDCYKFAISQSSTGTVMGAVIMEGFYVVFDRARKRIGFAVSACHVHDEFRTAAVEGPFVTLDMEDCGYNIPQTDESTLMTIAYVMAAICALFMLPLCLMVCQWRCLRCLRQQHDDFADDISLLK

| SMILES | AUTOMATED ASSAY BACE2 pIC50 (β-secretase II (BACE2)) | AUTOMATED ASSAY BACE1 pIC50 (β-secretase I (BACE1)) | IC50 (β-secretase II (BACE2); read-out: AUTOMATED ASSAY BACE2 pIC50 (converted)) [nM] | IC50 (β-secretase I (BACE1); read-out: AUTOMATED ASSAY BACE1 pIC50 (converted)) [nM] |
| --- | --- | --- | --- | --- |
| COc1ncc(/C=C/c2ccc(F)cc2)c2c1C[C@]1(c3ccc(F)cc3F)N=C(N)SC[C@@H]1C2 [Compound 48] | 7.63 | 7.76 | – | – |
| COc1ncc(-c2ccccc2F)c2c1C[C@]1(c3ccc(F)cc3F)N=C(N)SC[C@@H]1C2 [Compound 50] | 7.96 | 8.28 | – | – |
| COc1ncc(-c2cc(C(F)(F)F)ccc2F)c2c1C[C@]1(c3ccc(F)cc3F)N=C(N)SC[C@@H]1C2 [Compound 51] | 6.83 | 7.34 | – | – |
| COc1ncc(-c2cc(F)cc(F)c2)c2c1C[C@]1(c3ccc(F)cc3F)N=C(N)SC[C@@H]1C2 [Compound 54] | 8.42 | 8.54 | – | – |
| COc1ncc(-c2cccc(C)c2C)c2c1C[C@]1(c3ccc(F)cc3F)N=C(N)SC[C@@H]1C2 [Compound 56] | 7.63 | 8.11 | – | – |
| COc1ncc(-c2ccc(F)cc2C)c2c1C[C@]1(c3ccc(F)cc3F)N=C(N)SC[C@@H]1C2 [Compound 58] | 6.99 | 7.77 | – | – |
| COc1ncc(-c2ccc(Cl)c(C)c2)c2c1C[C@]1(c3ccc(F)cc3F)N=C(N)SC[C@@H]1C2 [Compound 59] | 7.15 | 7.68 | – | – |
| COc1ncc(-c2cccc3cnn(C)c23)c2c1C[C@]1(c3ccc(F)cc3F)N=C(N)SC[C@@H]1C2 [Compound 127] | 5.6 | 6.77 | – | – |
| COc1ncc(-c2cccc3c2OCCC3)c2c1C[C@]1(c3ccc(F)cc3F)N=C(N)SC[C@@H]1C2 [Compound 128] | 6.19 | 7.01 | – | – |
| COc1ncc(-c2coc3ccccc23)c2c1C[C@]1(c3ccc(F)cc3F)N=C(N)SC[C@@H]1C2 [Compound 130] | 7.03 | 7.4 | – | – |
| COc1ncc(-c2cccc3cnccc23)c2c1C[C@]1(c3ccc(F)cc3F)N=C(N)SC[C@@H]1C2 [Compound 132] | 7.16 | 7.82 | – | – |
| COc1ncc(-c2csc3ccccc23)c2c1C[C@]1(c3ccc(F)cc3F)N=C(N)SC[C@@H]1C2 [Compound 133] | 7.67 | 8.6 | – | – |
| COc1ncc(-c2ccccc2)c2c1C[C@]1(c3cc(OCc4ccccc4)ccc3F)N=C(N)SC[C@@H]1C2 [Compound 138] | – | – | 32.4 | 61.7 |
| COc1ccc(OC)c(-c2cnc(OC)c3c2C[C@H]2CSC(N)=N[C@@]2(c2cc(OCc4ccccc4F)ccc2F)C3)c1 [Compound 139] | 4.97 | 5.55 | – | – |
| COc1ncc(-c2ccccc2C)c2c1C[C@]1(c3cc(OCC4CCC4)ccc3F)N=C(N)SC[C@@H]1C2 [Compound 142] | 7.28 | 8.4 | – | – |
| COc1ccc(F)cc1-c1cnc(OC)c2c1C[C@H]1CSC(N)=N[C@@]1(c1cc(OCC3CCOCC3)ccc1F)C2 [Compound 143] | 4.78 | 6.43 | – | – |
| COc1ncc(-c2ccccc2C)c2c1C[C@]1(c3cc(OCCc4c(C)noc4C)ccc3F)N=C(N)SC[C@@H]1C2 [Compound 144] | 6.43 | 7.42 | – | – |
| COc1cccc(COc2ccc(F)c([C@]34Cc5c(OC)ncc(-c6c(C)noc6C)c5C[C@H]3CSC(N)=N4)c2)c1 [Compound 145] | 5.52 | 6.89 | – | – |
| COc1ncc(-c2c(C)noc2C)c2c1C[C@]1(c3cc(OC4CCOCC4)ccc3F)N=C(N)SC[C@@H]1C2 [Compound 146] | 6.63 | 6.74 | – | – |

The remaining lines, values ahead:

| AUTOMATED ASSAY BACE2 pIC50 (β-secretase II (BACE2)) | AUTOMATED ASSAY BACE1 pIC50 (β-secretase I (BACE1)) | IC50 (β-secretase II (BACE2); read-out: AUTOMATED ASSAY BACE2 pIC50 (converted)) [nM] | IC50 (β-secretase I (BACE1); read-out: AUTOMATED ASSAY BACE1 pIC50 (converted)) [nM] | SMILES |
| --- | --- | --- | --- | --- |
| 6.64 | 7.7 | – | – | COc1ncc(-c2c(C)noc2C)c2c1C[C@]1(c3cc(OCc4cccc(C#N)c4)ccc3F)N=C(N)SC[C@@H]1C2 [Compound 147] |
| 5.19 | 6 | – | – | COc1ncc(-c2c(C)noc2C)c2c1C[C@]1(c3cc(OCCOC4CCCCC4)ccc3F)N=C(N)SC[C@@H]1C2 [Compound 148] |
| 5.17 | 5.09 | – | – | COc1ncc(-c2c(C)noc2C)c2c1C[C@]1(c3cc(OCCC4CCCCC4)ccc3F)N=C(N)SC[C@@H]1C2 [Compound 149] |
| 5.3 | 6.12 | – | – | COc1ncc(-c2c(C)noc2C)c2c1C[C@]1(c3cc(OCCC4CCCC4)ccc3F)N=C(N)SC[C@@H]1C2 [Compound 150] |
| 5.65 | 7.52 | – | – | COc1cc(C)c(-c2cnc(OC)c3c2C[C@H]2CSC(N)=N[C@@]2(c2cc(OCC4CCOCC4)ccc2F)C3)cn1 [Compound 152] |
| 6.64 | 6.73 | – | – | COc1ncc(-c2c(C)noc2C)c2c1C[C@]1(c3cc(OCc4c(C)noc4C)ccc3F)N=C(N)SC[C@@H]1C2 [Compound 153] |
| 7.88 | 7.51 | – | – | COc1ncc(-c2ccccc2)c2c1C[C@]1(c3cc(OCc4ccc(F)cc4)ccc3F)N=C(N)SC[C@@H]1C2 [Compound 154] |
| 6.12 | 7.77 | – | – | COc1ncc(-c2c(C)noc2C)c2c1C[C@]1(c3cc(OCC4CCC4)ccc3F)N=C(N)SC[C@@H]1C2 [Compound 155] |
| 6.36 | 6.32 | – | – | COc1ncc(-c2ccccc2F)c2c1C[C@]1(c3cc(OCCC#N)ccc3F)N=C(N)SC[C@@H]1C2 [Compound 156] |

From patent publication US20200010482A1, “INHIBITORS OF BETA SECRETASE” (Janssen Pharmaceutica NV, priority 2017, published 2020)
